Reference: patent US4415495A, “5,6;8,9-Tetrahydro-7H-dibenz(d,f)azonines” (Godecke Aktiengesellschaft, priority 1981, dated 1983)

Tests used:
[1] = tested on: Rats with calcium chloride induced arrhythmias; assay: Calcium chloride induced arrhythmias in narcotised rats (prophylactic i.v. administration); assay type: in vivo; settings: for average period of arrhythmia: control 10.9 min.
Text: By means of the intravenous infusion of a calcium chloride solution, […] induced in narcotised rats which, after termination of the infusion, continue for a certain period of time (modification of the method described by Malinow et al., Arch. Int. Pharmacodyn, 102, 266/1955). This arrhythmic phase is shortened by the prophylactic administration of antiarrhythmic drugs. […] The results of the experiments with calcium chloride induced arrhythmias on rats are summarized in the following Table I. The average period of arrhythmia is calculated from experiments with at least 10 animals.

[2] = tested on: guinea pig left ventricle; assay: Refractory time of electrically stimulated guinea pig left ventricles (organ bath)
Method: The left ventricles of guinea pig hearts are electrically stimulated in an organ bath, the amplitude of contraction being recorded. By means of a second stimulus, the time is determined below which the heart muscle no longer reacts with a separately resolvable contraction. This time is defined as the refractory time.
The following Table II contains information concerning the maximum tested compound concentrations, as well as the average prolongation of the refractory time measured at this concentration in comparison with the initial value of, in each case, at least 6 experiments.

rabbit eye = assay: Local anesthetic action on the rabbit eye (corneal reflex); assay type: in vivo, rabbits; settings: for Period of Action: observation discontinued after 60 minutes
Method: The corneal reflex is induced in rabbits using a horse hair which bends with a pressure of about 250 mg (modification of the method described by M. von Frey, Beitrage zur Physiologie des Schmerzsinns, Vehr. d. Kgl. Sachs, Ges. d. Wiss. zu Leipzig, Math.-phys. Kl., 46, 185/1894; Untersuchungen uber die Sinnesfunktionen der menschlichen Haut, Leipzig, 1896). After instillation of local anesthetics into the conjunctival sac of the eye, the number of impacts with the horse hair which result in closure of the eyelid is increased. At intervals of 4 minutes, in each case a maximum of 100 successive impacts are carried out and such an action is taken as being 100%. The period of investigation is at most 60 minutes. The action of the compounds according to the present invention is compared with that of tetracaine and procainamide.
The following Table VII contains the results of the experiments on the rabbit eye. There are also given, in addition to the concentrations of the test solutions which were instilled into the conjunctival sac, the actions of the compounds in % (see description of the method), as well as their period of action. In each case, the observations were discontinued after 60 minutes.

in vivo = settings: mouse, po
Method: The compounds according to the present invention are administered intragastrally to male mice (NMRI) with a body weight of from 20 to 25 g. Each dosage group consists of 4 animals. The LD50 values are determined after having observed the animals for 7 days.

[3] = Oryctolagus cuniculus, topical, concentration 2.0 %
[4] = Oryctolagus cuniculus, topical, concentration 0.1 %

COc1ccc2c(c1)-c1c(ccc(OC)c1OC(C)=O)CC(Cc1ccccc1)N(C)CC2 (single isomer, unassigned; (-)) [Example 8, (-)-1-Acetoxy-6-benzyl-2,12-dimethoxy-7-methyl-5,6;8,9-tetrahydro-7H-dibenz(d,f)azonine]
average period of arrhythmia ([1]; 4 mg/kg I.V.): 5.7 min | average prolongation of the refractory time ([2]; 4.0 × 10^-6 g/ml in the bath): 21 ms | inhibition in vivo at 0.5 % (rabbit eye; Oryctolagus cuniculus, topical, concentration 0.5 %): 74% | inhibition in vivo at 2 % (rabbit eye; [3]): 100% | Period of Action (rabbit eye; concentration 0.5 %): > 60 min | Period of Action (rabbit eye; concentration 2.0 %): > 60 min | LD50 at 168 h (in vivo): 1200 mg/kg

COc1ccc2c(c1)-c1c(ccc(OC)c1O)CC(Cc1c(Cl)cccc1Cl)N(C)CC2 (single isomer, unassigned; (-)) [Example 11, (-)-6-(2',6'-Dichlorobenzyl)-2,12-dimethoxy-7-methyl-1-hydroxy-5,6;8,9-tetrahydro-7H-dibenz(d,f)azonine]
average period of arrhythmia ([1]; 8 mg/kg I.V.): 7.7 min | antiarrhythmic action / period of arrhythmia (in words) ([1]; in comparison with control animals or procainamide): just as good | average prolongation of the refractory time ([2]; 3.2 × 10^-5 g/ml in the bath): 29 ms | inhibition in vivo at 1 % (rabbit eye; Oryctolagus cuniculus, topical, concentration 1.0 %): 55% | inhibition in vivo at 2 % (rabbit eye; [3]): 100% | Period of Action (rabbit eye; concentration 1.0 %): > 60 min | Period of Action (rabbit eye; concentration 2.0 %): > 60 min | LD50 at 168 h (in vivo): > 1600 mg/kg

COc1ccc2c(c1)-c1c(ccc(OC)c1O)CC(Cc1cccc(C)c1)N(C)CC2 (single isomer, unassigned; (-)) [Example 12, (-)-6-(3'-Methylbenzyl)-2,12-dimethoxy-7-methyl-1-hydroxy-5,6;8,9-tetrahydro-7H-dibenz(d,f)azonine]
average period of arrhythmia ([1]; 5 mg/kg I.V.): 6.4 min | average prolongation of the refractory time ([2]; 6.4 × 10^-5 g/ml in the bath): 51 ms | inhibition in vivo at 0.1 % (rabbit eye; [4]): 68% | inhibition in vivo at 0.25 % (rabbit eye; Oryctolagus cuniculus, topical, concentration 0.25 %): 100% | Period of Action (rabbit eye; concentration 0.1 %): about 56 Min. | Period of Action (rabbit eye; concentration 0.25 %): > 60 min | LD50 at 168 h (in vivo): 1200 mg/kg

CC[C@H]1[C@@H]2C[C@H]3[C@@H]4N(C)c5ccccc5[C@]45C[C@@H]([C@H]2[C@H]5O)N3[C@@H]1O [Ajmaline, ajmaline, reference compound]
average prolongation of the refractory time ([2]; 1.6 × 10^-5 g/ml in the bath): 16 ms

COc1ccc2c(c1)-c1c(ccc(OC)c1O)CC(Cc1ccccc1)NCC2 (centres unmarked) [Example 9, 6-Benzyl-2,12-dimethoxy-1-hydroxy-5,6;8,9-tetrahydro-7H-dibenz(d,f)azonine]
average period of arrhythmia ([1]; 5 mg/kg I.V.): 6.8 min | average prolongation of the refractory time ([2]; 1.6 × 10^-5 g/ml in the bath): 27 ms

COc1ccc(CCN(C)CCCC(C#N)(c2ccc(OC)c(OC)c2)C(C)C)cc1OC (centres unmarked) [Verapamil, verapamil, reference compound]
average prolongation of the refractory time ([2]; 1.6 × 10^-5 g/ml in the bath): 16 ms

O=C1NC(=O)C(c2ccccc2)(c2ccccc2)N1 [phenytoin, reference compound]
average period of arrhythmia ([1]; 20 mg/kg I.V.): 16.5 min | average prolongation of the refractory time ([2]; 1.6 × 10^-5 g/ml in the bath): -6 ms

CCCCNc1ccc(C(=O)OCCN(C)C)cc1 [tetracaine, reference compound]
inhibition in vivo at 0.1 % (rabbit eye; [4]): 100% | Period of Action (rabbit eye; concentration 0.1 %): about 44 Min. | duration of maximum activity strength (rabbit eye; concentration not given there): 44 min | maximum activity strength (rabbit eye; concentration not given there): 100%
